Assay results as given in EPA's ToxRefDB 2.

Legend:
rat [1] = settings: Combined chronic toxicity/carcinogenicity, sprague dawley, Oral, Feed, dose end: 2 year
dog [2] = settings: Chronic toxicity, beagle, Oral, Feed, dose end: 52 week
mouse = settings: Combined chronic toxicity/carcinogenicity; cd1; Oral; Feed; dose end: 95 week; group: systemic; systemic / in life observation / body weight / body weight gain
rabbit [3] = settings: Prenatal developmental toxicity study, new zealand white, Oral, Gavage/Intubation, dose end: 19 GD
rat [4] = settings: Developmental neurotoxicity study; sprague dawley; Oral; Gavage/Intubation; dose end: 42 PND; group: cannot be grouped; developmental / offspring survival late / [other] / [other]
rat [5] = settings: Sub-acute repeat dose toxicity, sprague dawley, Oral, Gavage/Intubation, dose end: 1 month, group: systemic
dog [6] = settings: Sub-acute repeat dose toxicity, beagle, Oral, Gavage/Intubation, dose end: 4 week, group: systemic
rat [7] = settings: Prenatal developmental toxicity study, wistar, Oral, Gavage/Intubation, dose end: 20 GD
rat [8] = settings: Prenatal developmental toxicity study; wistar; Dermal; Topical; dose end: 15 GD; group: developmental; developmental / developmental malformation / bone / supernumerary
rat [9] = settings: Multigenerational reproductive toxicity study, wistar, Oral, Gavage/Intubation, dose end: 2 generation
rat [10] = settings: Prenatal developmental toxicity study, wistar, Oral, Gavage/Intubation, dose end: 19 GD
rabbit [11] = settings: Prenatal developmental toxicity study, himalayan, Oral, Gavage/Intubation, dose end: 18 GD
[12] = group: cholinesterase, cholinesterase / cholinesterase / cholinesterase / brain cholinesterase (che)
[13] = group: cholinesterase, cholinesterase / cholinesterase / cholinesterase / brain cholinesterase (che) + cholinesterase / cholinesterase / cholinesterase / plasma …
[14] = group: systemic, systemic / in life observation / body weight / body weight + systemic / in life observation / body weight / body weight gain
[15] = group: cholinesterase, cholinesterase / cholinesterase / cholinesterase / cholinesterase (che) + cholinesterase / cholinesterase / cholinesterase / plasma …
[16] = group: systemic, systemic / in life observation / clinical signs / [other] + systemic / in life observation / clinical signs / labored respiration + systemic…
[17] = group: developmental, developmental / developmental landmark / incisor eruption / incisor eruption + developmental / developmental malformation / bone / absent + …
[18] = group: maternal, systemic / in life observation / body weight / body weight gain + systemic / in life observation / food consumption / food efficiency
[19] = group: maternal, systemic / in life observation / body weight / body weight gain + systemic / in life observation / food consumption / food efficiency + …
[20] = systemic / in life observation / body weight / body weight gain + systemic / in life observation / food consumption / food consumption
[21] = systemic / in life observation / body weight / body weight gain + systemic / in life observation / food consumption / food consumption + …
[22] = systemic / clinical chemistry / alanine aminotransferase (alt/sgpt) / alanine aminotransferase (alt/sgpt) + systemic / hematology / blood …
[23] = group: developmental, developmental / developmental malformation / bone / supernumerary
[24] = group: maternal, systemic / in life observation / clinical signs / abnormal respiratory sounds + systemic / in life observation / clinical signs / altered …
[25] = group: offspring, systemic / in life observation / body weight / offspring (pup) weight + systemic / organ weight / spleen / absolute + systemic / organ …
[26] = group: parental, systemic / organ weight / liver / absolute + systemic / organ weight / thymus / absolute + systemic / organ weight / thymus / relative to …
[27] = group: reproductive, reproductive / reproductive performance / estrous cycle / length + reproductive / reproductive performance / estrous cycle / periodicity + …
[28] = group: developmental, developmental / developmental malformation / bone / delayed ossification + developmental / developmental malformation / bone / supernumerary…
[29] = group: maternal, systemic / in life observation / body weight / body weight gain + systemic / in life observation / food consumption / food consumption
[30] = group: maternal, systemic / in life observation / body weight / body weight gain + systemic / in life observation / food consumption / food consumption + …
[31] = group: developmental, developmental / developmental malformation / bone / arthrogryposis + developmental / developmental malformation / bone / malformation, total
[32] = group: maternal, reproductive / reproductive performance / resorptions / resorptions + systemic / in life observation / body weight / body weight gain + …

What does the source list for `CNC(=O)Oc1cccc(N=CN(C)C)c1.Cl` [Formetanate hydrochloride]?
LEL (rat [1]; [12]): 0.45 mg/kg/day; NEL (rat [1]; [12]): < 0.45 mg/kg/day; LOAEL (rat [1]; [13]): > 12 mg/kg/day; NOAEL (rat [1]; [13]): ≥ 12 mg/kg/day; LOAEL (rat [1]; group: systemic, systemic / in life observation / body weight / body weight): 12 mg/kg/day; LEL (rat [1]; [14]): 12 mg/kg/day; NEL (rat [1]; [14]): 2.3 mg/kg/day; NOAEL (rat [1]; [14]): 2.3 mg/kg/day; LEL (dog [2]; [15]): 1.74 mg/kg/day; LOAEL (dog [2]; [15]): 1.74 mg/kg/day; NEL (dog [2]; [15]): 0.37 mg/kg/day; NOAEL (dog [2]; [15]): 0.37 mg/kg/day; LEL (dog [2]; [16]): 1.74 mg/kg/day; LOAEL (dog [2]; [16]): 1.74 mg/kg/day; NEL (dog [2]; [16]): 0.37 mg/kg/day; NOAEL (dog [2]; [16]): 0.37 mg/kg/day; LEL (mouse): 70 mg/kg/day; LOAEL (mouse): 70 mg/kg/day; NEL (mouse): 7 mg/kg/day; NOAEL (mouse): 7 mg/kg/day; LEL (rabbit [3]; [17]): 15 mg/kg/day; LOAEL (rabbit [3]; [17]): 15 mg/kg/day; NEL (rabbit [3]; [17]): 5 mg/kg/day; NOAEL (rabbit [3]; [17]): 5 mg/kg/day; LEL (rabbit [3]; [18]): 15 mg/kg/day; LOAEL (rabbit [3]; [18]): 15 mg/kg/day; NEL (rabbit [3]; [19]): 5 mg/kg/day; NOAEL (rabbit [3]; [19]): 5 mg/kg/day

For `O=C([O-])c1ccccc1O.[Na+]` [Sodium salicylate], which LEL (rat [4]) is on record?
The LEL was 12.5 mg/kg/day.

And the LOAEL (rat [4])?
Its LOAEL is > 150 mg/kg/day.

What about the NEL (rat [4]) of the same compound?
Its NEL is 4.2 mg/kg/day.

What about the NOAEL (rat [4]) of the same compound?
Its NOAEL is ≥ 150 mg/kg/day.

Which LEL (rat [5]; [20]) does the source give for `CC(=O)O.COCCOc1cc2cc(C(=O)NC3CCN(C(C)C)CC3)n(CC(=O)Nc3ccc(Cl)cn3)c2cn1` here?
The LEL was 10 mg/kg/day.

What about the NEL (rat [5]; [20]) of the same compound?
The NEL was < 10 mg/kg/day.

What about the LOAEL (rat [5]; [21]) of the same compound?
The LOAEL was 30 mg/kg/day.

What about the NOAEL (rat [5]; [21]) of the same compound?
The NOAEL was 10 mg/kg/day.

And the LOAEL (dog [6]; [22])?
The LOAEL was 75 mg/kg/day.

And the NEL (dog [6]; [22])?
The NEL was 3 mg/kg/day.

What about the NOAEL (dog [6]; [22]) of the same compound?
Its NOAEL is 15 mg/kg/day.

What about the LEL (dog [6]; systemic / organ weight / liver / absolute + systemic / organ weight / liver / relative to body weight) of the same compound?
Its LEL is 15 mg/kg/day.

With `OC(Cc1ccccc1Cl)(Cn1[nH]cnc1=S)C1(Cl)CC1` (stereo not given) [Prothioconazole] as the compound, how does the LEL (rat [7]; [23]) read?
Its LEL is 30 mg/kg/day.

What about the LOAEL (rat [7]; [23]) of the same compound?
Its LOAEL is 30 mg/kg/day.

And the NEL (rat [7]; [23])?
Its NEL is < 30 mg/kg/day.

What about the NOAEL (rat [7]; [23]) of the same compound?
The NOAEL was < 30 mg/kg/day.

And the LEL (rat [7]; [24])?
Its LEL is 750 mg/kg/day.

What about the LOAEL (rat [7]; [24]) of the same compound?
Its LOAEL is 750 mg/kg/day.

What about the NEL (rat [7]; [24]) of the same compound?
The NEL was 150 mg/kg/day.

And the NOAEL (rat [7]; [24])?
Its NOAEL is 150 mg/kg/day.

What about the LEL (rat [8]) of the same compound?
The LEL was 100 mg/kg/day.

What about the LOAEL (rat [8]) of the same compound?
The LOAEL was 100 mg/kg/day.

And the NEL (rat [8])?
The NEL was < 100 mg/kg/day.

And the NOAEL (rat [8])?
The NOAEL was < 100 mg/kg/day.

And the LEL (rat [9]; [25])?
Its LEL is 750 mg/kg/day.

What about the LOAEL (rat [9]; [25]) of the same compound?
Its LOAEL is 750 mg/kg/day.

What about the NEL (rat [9]; [25]) of the same compound?
Its NEL is 100 mg/kg/day.

What about the NOAEL (rat [9]; [25]) of the same compound?
Its NOAEL is 100 mg/kg/day.

And the LOAEL (rat [9]; [26])?
Its LOAEL is 750 mg/kg/day.

What about the NEL (rat [9]; [26]) of the same compound?
The NEL was 10 mg/kg/day.

What about the NOAEL (rat [9]; [26]) of the same compound?
Its NOAEL is 100 mg/kg/day.

What about the LEL (rat [9]; group: parental, systemic / organ weight / thymus / absolute + systemic / organ weight / thymus / relative to body weight + systemic / organ weight / seminal…) of the same compound?
Its LEL is 100 mg/kg/day.

What about the LEL (rat [9]; [27]) of the same compound?
Its LEL is 750 mg/kg/day.

And the LOAEL (rat [9]; [27])?
Its LOAEL is 750 mg/kg/day.

What about the NEL (rat [9]; [27]) of the same compound?
Its NEL is 100 mg/kg/day.

And the NOAEL (rat [9]; [27])?
The NOAEL was 100 mg/kg/day.

And the LEL (rat [10]; [28])?
Its LEL is 1000 mg/kg/day.

What about the LOAEL (rat [10]; [28]) of the same compound?
The LOAEL was > 1000 mg/kg/day.

And the NEL (rat [10]; [28])?
Its NEL is 200 mg/kg/day.

What about the NOAEL (rat [10]; [28]) of the same compound?
The NOAEL was ≥ 1000 mg/kg/day.

And the LEL (rat [10]; [29])?
The LEL was 200 mg/kg/day.

What about the LOAEL (rat [10]; [29]) of the same compound?
The LOAEL was 200 mg/kg/day.

And the NEL (rat [10]; [30])?
Its NEL is 40 mg/kg/day.

What about the NOAEL (rat [10]; [30]) of the same compound?
The NOAEL was 40 mg/kg/day.

What about the LEL (rabbit [11]; [31]) of the same compound?
Its LEL is 10 mg/kg/day.

And the LOAEL (rabbit [11]; [31])?
Its LOAEL is 10 mg/kg/day.

What about the NEL (rabbit [11]; [31]) of the same compound?
The NEL was 2 mg/kg/day.

And the NOAEL (rabbit [11]; [31])?
The NOAEL was 2 mg/kg/day.

What about the LEL (rabbit [11]; [32]) of the same compound?
The LEL was 50 mg/kg/day.

What about the LOAEL (rabbit [11]; [32]) of the same compound?
Its LOAEL is 50 mg/kg/day.

And the NEL (rabbit [11]; [32])?
The NEL was 10 mg/kg/day.

And the NOAEL (rabbit [11]; [32])?
Its NOAEL is 10 mg/kg/day.
